The target in one series is Hsp90. Kind of series: Hsp90 Binding Assay (fluorescence polarization, cy3B-GM displacement, SKBr3 lysate). Details: species or system human. Conditions: read-out: SKBr3 Binding Affinity. In general terms: In fluorescence polarisation assays a small probe gives low polarisation when free and higher when bound to something large.
A further series has as its target hERG (Homo sapiens, UniProt Q12809). Kind of series: hERG binding. An excerpt:
In interpreting these test results, it will be appreciated that binding to Hsp90 for activity in the treatment of cancer or neurodegenerative disorders is desirable. In contrast, it is generally undesirable to have binding to hERG since binding to hERG can result in undesirable cardiac side effects. Therefore, having a low value for binding to Hsp90 and a high value for binding to hERG is desirable, bearing in mind that the units for the two measurement are different.

[1] abbreviates: human cancer cell lysate (SKBr3), cy3B-GM displacement, 4° C., 24 h.

Like-named read-outs stand apart in the source and are kept apart here.

Sequence of hERG (Q12809 whole entry): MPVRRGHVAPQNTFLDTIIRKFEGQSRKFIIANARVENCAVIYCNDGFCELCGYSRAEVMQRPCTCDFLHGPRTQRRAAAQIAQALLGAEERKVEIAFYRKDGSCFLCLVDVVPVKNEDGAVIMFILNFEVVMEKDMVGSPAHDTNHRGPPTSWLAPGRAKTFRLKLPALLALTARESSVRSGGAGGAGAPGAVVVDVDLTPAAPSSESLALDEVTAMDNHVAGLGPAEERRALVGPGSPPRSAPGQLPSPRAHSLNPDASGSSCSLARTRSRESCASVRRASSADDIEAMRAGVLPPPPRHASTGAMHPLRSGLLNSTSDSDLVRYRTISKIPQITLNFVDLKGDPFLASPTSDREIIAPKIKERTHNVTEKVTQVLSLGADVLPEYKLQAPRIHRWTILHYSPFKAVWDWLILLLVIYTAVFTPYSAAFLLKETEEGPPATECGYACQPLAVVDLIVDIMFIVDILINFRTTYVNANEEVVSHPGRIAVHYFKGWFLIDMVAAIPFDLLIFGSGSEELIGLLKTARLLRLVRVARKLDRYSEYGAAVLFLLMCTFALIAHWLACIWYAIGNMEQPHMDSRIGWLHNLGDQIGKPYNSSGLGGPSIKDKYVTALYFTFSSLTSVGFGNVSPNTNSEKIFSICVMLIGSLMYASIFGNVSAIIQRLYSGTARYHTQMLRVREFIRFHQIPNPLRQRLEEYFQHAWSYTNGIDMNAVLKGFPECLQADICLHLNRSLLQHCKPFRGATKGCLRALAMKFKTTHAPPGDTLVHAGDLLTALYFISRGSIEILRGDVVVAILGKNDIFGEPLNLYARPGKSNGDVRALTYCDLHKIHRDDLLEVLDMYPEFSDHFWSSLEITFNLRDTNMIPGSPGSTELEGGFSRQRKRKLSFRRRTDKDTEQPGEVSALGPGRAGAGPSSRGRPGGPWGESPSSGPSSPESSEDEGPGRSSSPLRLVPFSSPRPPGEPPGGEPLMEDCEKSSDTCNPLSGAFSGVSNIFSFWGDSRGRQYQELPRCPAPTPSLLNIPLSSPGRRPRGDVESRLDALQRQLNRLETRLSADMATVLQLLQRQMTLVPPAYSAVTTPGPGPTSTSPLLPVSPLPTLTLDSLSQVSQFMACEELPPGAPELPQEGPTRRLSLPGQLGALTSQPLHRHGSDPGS

For `CC(C)NCCCn1c(Sc2cc3c(cc2N(C)C)OCO3)nc2c(N)ncnc21` [DZ4-134, 8-(6-(Dimethylamino)benzo[d][1,3]dioxol-5-ylthio)-9-(3-(isopropylamine)propyl)-9H-purin-6-amine], the IC50 at Hsp90 (setting [1]) worked out at 55.3 nM. On hERG, the hERG binding came to 11.0 µM.
For `CN(C)c1cc2c(cc1Sc1nc3c(N)ncnc3n1CCCNC(C)(C)C)OCO2` [DZ4-135, 9-(3-(tert-Butylamino)propyl)-8-(6-(dimethylamino)benzo[d][1,3]dioxol-5-ylthio)-9H-purin-6-amine], in that order: 45.4 nM and 14.0 µM.
On to `CC(C)NCCCn1c(Sc2cc3c(cc2I)OCO3)nc2c(N)ncnc21` [PU-H71, reference compound], for which the IC50 at Hsp90 came out at […]. In addition, the hERG binding on hERG is 1 µM.

The values are drawn from patent publication US10064867B2, “Hsp90 inhibitors” (Sloan-Kettering Institute for Cancer Research, priority 2011, dated 2018).
